# From patent US12559529B2, “NPY2 receptor agonists” (Boehringer Ingelheim International GmbH, priority 2019, dated 2026)
# Biological target: T1, Human Neuropeptide Y2 Receptor (Homo sapiens, UniProt P49146)
# T1 construct: purchased CHEMICON HTS066M
# T1 sequence (P49146 1-381): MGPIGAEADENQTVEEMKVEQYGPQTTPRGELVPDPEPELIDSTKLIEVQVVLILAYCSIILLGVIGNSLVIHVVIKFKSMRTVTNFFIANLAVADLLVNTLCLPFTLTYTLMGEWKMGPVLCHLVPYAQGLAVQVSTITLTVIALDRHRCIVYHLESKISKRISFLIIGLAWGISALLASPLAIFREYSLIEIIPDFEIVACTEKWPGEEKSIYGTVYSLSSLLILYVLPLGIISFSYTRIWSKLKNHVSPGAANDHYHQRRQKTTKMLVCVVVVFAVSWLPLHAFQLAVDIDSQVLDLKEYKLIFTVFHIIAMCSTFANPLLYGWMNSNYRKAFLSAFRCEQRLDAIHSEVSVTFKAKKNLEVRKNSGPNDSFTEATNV
# Test: Radioligand binding competition assay (RLB)
# Settings: Table 3; human 125I-PYY (1-36) 0.02 nM, Y2 receptor membranes; read-out: Ki
# Summary of the method: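 Peptide dilutions made in pH 7.4 HEPES assay buffer with 0.2% ovalbumin; human Y2 receptor membranes added at 0.5 μg protein/well; plates shaken 2 h at room temperature; reaction stopped by vacuum filtration onto PEI-treated GF/C filters with ice-cold high-salt washes; radioactivity counted by scintillation.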
row,Compound,Ki [nM]
1,"CC(C)CC(=O)N[C@@H](C)C(=O)N1CCC[C@H]1C(=O)N[C@@H](CCC(=O)O)C(=O)N[C@@H](CCCCNC(=O)COCCOCCNC(=O)COCCOCCNC(=O)CC[C@H](NC(=O)CCCCCCCCCCCCCCCCC(=O)O)C(=O)O)C(=O)N1CCC[C@H]1C(=O)N[C@@H](CCC(=O)O)C(=O)N[C@@H](C)C(=O)N[C@@H](CC(=O)O)C(=O)N[C@@H](C)C(=O)N[C@@H](CO)C(=O)N1CCC[C@H]1C(=O)N[C@@H](CCC(=O)O)C(=O)N[C@@H](CCC(=O)O)C(=O)N[C@@H](CC(C)C)C(=O)N[C@@H](CCC(N)=O)C(=O)N[C@@H](CCCNC(=N)N)C(=O)N[C@@H](Cc1ccc(O)cc1)C(=O)N[C@@H](Cc1ccc(O)cc1)C(=O)N[C@H](C(=O)N[C@@H](C)C(=O)N[C@@H](CC(C)C)C(=O)N[C@@H](CCCNC(=N)N)C(=O)N[C@@H](Cc1c[nH]cn1)C(=O)N[C@@H](Cc1ccc(O)cc1)C(=O)N[C@@H](Cc1ccc(O)cc1)C(=O)N[C@@H](CC(N)=O)C(=O)N[C@@H](Cc1c[nH]c2ccccc12)C(=O)N[C@@H](CC(C)C)C(=O)N[C@H](C(=O)N[C@@H](CCCNC(=N)N)C(=O)N[C@@H](CCC(N)=O)C(=O)N[C@@H](CCCNC(=N)N)C(=O)N[C@@H](Cc1ccc(O)cc1)C(N)=O)[C@@H](C)O)C(C)C [Compound 181, N{alpha-4}-(3-methylbutanoyl)-N{epsilon-7}-[2-(2-{2-[2-(2-{2-[(4S)-4-carboxy-4-(17-carboxyheptadecanamido)butanamido]ethoxy}ethoxy)acetamido]ethoxy}ethoxy)acetamido]-[4A,7K,9E,10A,18Q,22V,23A,28Y,30W,31L]hPYY (4-36)]",0.67
2,"CC(C)CC(=O)N[C@@H](C)C(=O)N1CCC[C@H]1C(=O)N[C@@H](CCC(=O)O)C(=O)N[C@@H](CCCCNC(=O)COCCOCCNC(=O)COCCOCCNC(=O)CC[C@H](NC(=O)CCCCCCCCCCCCCCCCC(=O)O)C(=O)O)C(=O)N1CCC[C@H]1C(=O)N[C@@H](CCC(=O)O)C(=O)N[C@@H](CCC(=O)O)C(=O)N[C@@H](CC(=O)O)C(=O)NCC(=O)N[C@@H](CO)C(=O)N1CCC[C@H]1C(=O)N[C@@H](CCC(=O)O)C(=O)N[C@@H](CCC(=O)O)C(=O)N[C@@H](CC(C)C)C(=O)N[C@@H](CCC(N)=O)C(=O)N[C@@H](CCCNC(=N)N)C(=O)N[C@@H](Cc1ccc(O)cc1)C(=O)N[C@@H](Cc1ccc(O)cc1)C(=O)N[C@H](C(=O)N[C@@H](CCC(=O)O)C(=O)N[C@@H](CC(C)C)C(=O)N[C@@H](CCCNC(=N)N)C(=O)N[C@@H](Cc1c[nH]cn1)C(=O)N[C@@H](Cc1ccc(O)cc1)C(=O)N[C@@H](Cc1ccc(O)cc1)C(=O)N[C@@H](CC(N)=O)C(=O)N[C@@H](Cc1c[nH]c2ccccc12)C(=O)N[C@@H](CC(C)C)C(=O)N[C@H](C(=O)N[C@@H](CCCNC(=N)N)C(=O)N[C@@H](CCC(N)=O)C(=O)N[C@@H](CCCNC(=N)N)C(=O)N[C@@H](Cc1ccc(O)cc1)C(N)=O)[C@@H](C)O)C(C)C [Compound 182, N{alpha-4}-(3-methylbutanoyl)-N{epsilon-7}-[2-(2-{2-[2-(2-{2-[(4S)-4-carboxy-4-(17-carboxyheptadecanamido)butanamido]ethoxy}ethoxy)acetamido]ethoxy}ethoxy)acetamido]-[4A,7K,9E,12G,18Q,22V,23E,28Y,30W,31L]hPYY (4-36)]",3.45
3,"CC(C)CC(=O)N[C@@H](C)C(=O)N1CCC[C@H]1C(=O)N[C@@H](CCC(=O)O)C(=O)N[C@@H](CCCCNC(=O)COCCOCCNC(=O)COCCOCCNC(=O)CC[C@H](NC(=O)CCCCCCCCCCCCCCCCC(=O)O)C(=O)O)C(=O)N1CCC[C@H]1C(=O)N1CCC[C@H]1C(=O)N[C@@H](CCC(=O)O)C(=O)N[C@@H](CC(=O)O)C(=O)N[C@@H](C)C(=O)N[C@@H](CO)C(=O)N1CCC[C@H]1C(=O)N[C@@H](CCC(=O)O)C(=O)N[C@@H](CCC(=O)O)C(=O)N[C@@H](CC(C)C)C(=O)N[C@@H](CCC(N)=O)C(=O)N[C@@H](CCCNC(=N)N)C(=O)N[C@@H](Cc1ccc(O)cc1)C(=O)N[C@@H](Cc1ccc(O)cc1)C(=O)N[C@H](C(=O)N[C@@H](CO)C(=O)N[C@@H](CC(C)C)C(=O)N[C@@H](CCCNC(=N)N)C(=O)N[C@@H](Cc1c[nH]cn1)C(=O)N[C@@H](Cc1ccc(O)cc1)C(=O)N[C@@H](Cc1ccc(O)cc1)C(=O)N[C@@H](CC(N)=O)C(=O)N[C@@H](Cc1c[nH]c2ccccc12)C(=O)N[C@@H](CC(C)C)C(=O)N[C@H](C(=O)N[C@@H](CCCNC(=N)N)C(=O)N[C@@H](CCC(N)=O)C(=O)N[C@@H](CCCNC(=N)N)C(=O)N[C@@H](Cc1ccc(O)cc1)C(N)=O)[C@@H](C)O)C(C)C [Compound 183, N{alpha-4}-(3-methylbutanoyl)-N{epsilon-7}-[2-(2-{2-[2-(2-{2-[(4S)-4-carboxy-4-(17-carboxyheptadecanamido)butanamido]ethoxy}ethoxy)acetamido]ethoxy}ethoxy)acetamido]-[4A,7K,9P,18Q,22V,28Y,30W,31L]hPYY (4-36)]",0.7

# Continued, values first:
row,Ki [nM],Compound
1,2.06,"CC(C)CC(=O)N[C@@H](C)C(=O)N1CCC[C@H]1C(=O)N[C@@H](CCC(=O)O)C(=O)N[C@@H](CCCCNC(=O)COCCOCCNC(=O)COCCOCCNC(=O)CC[C@H](NC(=O)CCCCCCCCCCCCCCCCC(=O)O)C(=O)O)C(=O)N1CCC[C@H]1C(=O)N[C@@H](CCC(=O)O)C(=O)N[C@@H](CCC(=O)O)C(=O)N[C@@H](C)C(=O)N[C@@H](C)C(=O)N[C@@H](CO)C(=O)N1CCC[C@H]1C(=O)N[C@@H](CCC(=O)O)C(=O)N[C@@H](CCC(=O)O)C(=O)N[C@@H](CC(C)C)C(=O)N[C@@H](CCC(N)=O)C(=O)N[C@@H](CCCNC(=N)N)C(=O)N[C@@H](Cc1ccc(O)cc1)C(=O)N[C@@H](Cc1ccc(O)cc1)C(=O)N[C@H](C(=O)N[C@H](C(=O)N[C@@H](CC(C)C)C(=O)N[C@@H](CCCNC(=N)N)C(=O)N[C@@H](Cc1c[nH]cn1)C(=O)N[C@@H](Cc1ccc(O)cc1)C(=O)N[C@@H](Cc1ccc(O)cc1)C(=O)N[C@@H](CC(N)=O)C(=O)N[C@@H](Cc1c[nH]c2ccccc12)C(=O)N[C@@H](CC(C)C)C(=O)N[C@H](C(=O)N[C@@H](CCCNC(=N)N)C(=O)N[C@@H](CCC(N)=O)C(=O)N[C@@H](CCCNC(=N)N)C(=O)N[C@@H](Cc1ccc(O)cc1)C(N)=O)[C@@H](C)O)[C@@H](C)O)C(C)C [Compound 184, N{alpha-4}-(3-methylbutanoyl)-N{epsilon-7}-[2-(2-{2-[2-(2-{2-[(4S)-4-carboxy-4-(17-carboxyheptadecanamido)butanamido]ethoxy}ethoxy)acetamido]ethoxy}ethoxy)acetamido]-[4A,7K,9E,11A,18Q,22V,23T,28Y,30W,31L]hPYY (4-36)]"
2,2.76,"CC(C)CC(=O)N[C@@H](C)C(=O)N1CCC[C@H]1C(=O)N[C@@H](CCC(=O)O)C(=O)N[C@@H](CCCCNC(=O)COCCOCCNC(=O)COCCOCCNC(=O)CC[C@H](NC(=O)CCCCCCCCCCCCCCCCC(=O)O)C(=O)O)C(=O)N1CCC[C@H]1C(=O)N[C@@H](CCC(=O)O)C(=O)N[C@@H](CCC(=O)O)C(=O)N[C@@H](CC(=O)O)C(=O)N[C@@H](C)C(=O)N[C@@H](CO)C(=O)N1CCC[C@H]1C(=O)N[C@@H](CCC(=O)O)C(=O)N[C@@H](CCC(=O)O)C(=O)N[C@@H](CC(C)C)C(=O)N[C@@H](CCC(N)=O)C(=O)N[C@@H](CCCNC(=N)N)C(=O)N[C@@H](Cc1ccc(O)cc1)C(=O)N[C@@H](Cc1ccc(O)cc1)C(=O)N[C@H](C(=O)N[C@@H](CO)C(=O)N[C@@H](CC(C)C)C(=O)N[C@@H](CCCNC(=N)N)C(=O)N[C@@H](Cc1c[nH]cn1)C(=O)N[C@@H](CCC(N)=O)C(=O)N[C@@H](Cc1ccc(O)cc1)C(=O)N[C@@H](CC(N)=O)C(=O)N[C@@H](Cc1c[nH]c2ccccc12)C(=O)N[C@@H](CC(C)C)C(=O)N[C@H](C(=O)N[C@@H](CCCNC(=N)N)C(=O)N[C@@H](CCC(N)=O)C(=O)N[C@@H](CCCNC(=N)N)C(=O)N[C@@H](Cc1ccc(O)cc1)C(N)=O)[C@@H](C)O)C(C)C [Compound 187, N{alpha-4}-(3-methylbutanoyl)-N{epsilon-7}-[2-(2-{2-[2-(2-{2-[(4S)-4-carboxy-4-(17-carboxyheptadecanamido)butanamido]ethoxy}ethoxy)acetamido]ethoxy}ethoxy)acetamido]-[4A,7K,9E,18Q,22V,27Q,28Y,30W,31L]hPYY (4-36)]"
3,2.08,"CC(C)CC(=O)N[C@@H](C)C(=O)N1CCC[C@H]1C(=O)N[C@@H](CCC(=O)O)C(=O)N[C@@H](CCCCNC(=O)COCCOCCNC(=O)COCCOCCNC(=O)CC[C@H](NC(=O)CCCCCCCCCCCCCCCCC(=O)O)C(=O)O)C(=O)N1CCC[C@H]1C(=O)N[C@@H](CCC(=O)O)C(=O)N[C@@H](CCC(=O)O)C(=O)N[C@@H](CC(=O)O)C(=O)N[C@@H](C)C(=O)N[C@@H](CO)C(=O)N[C@@H](CCC(=O)O)C(=O)N[C@@H](C)C(=O)N[C@@H](CCC(=O)O)C(=O)N[C@@H](CC(C)C)C(=O)N[C@@H](CCC(N)=O)C(=O)N[C@@H](CCCNC(=N)N)C(=O)N[C@@H](Cc1ccc(O)cc1)C(=O)N[C@@H](Cc1ccc(O)cc1)C(=O)N[C@H](C(=O)N[C@@H](CO)C(=O)N[C@@H](CC(C)C)C(=O)N[C@@H](CCCNC(=N)N)C(=O)N[C@@H](Cc1c[nH]cn1)C(=O)N[C@@H](Cc1ccc(O)cc1)C(=O)N[C@@H](Cc1ccc(O)cc1)C(=O)N[C@@H](CC(N)=O)C(=O)N[C@@H](Cc1c[nH]c2ccccc12)C(=O)N[C@@H](CC(C)C)C(=O)N[C@H](C(=O)N[C@@H](CCCNC(=N)N)C(=O)N[C@@H](CCC(N)=O)C(=O)N[C@@H](CCCNC(=N)N)C(=O)N[C@@H](Cc1ccc(O)cc1)C(N)=O)[C@@H](C)O)C(C)C [Compound 189, N{alpha-4}-(3-methylbutanoyl)-N{epsilon-7}-[2-(2-{2-[2-(2-{2-[(4S)-4-carboxy-4-(17-carboxyheptadecanamido)butanamido]ethoxy}ethoxy)acetamido]ethoxy}ethoxy)acetamido]-[4A,7K,9E,14E,15A,18Q,22V,28Y,30W,31L]hPYY (4-36)]"
